Reference: US11578058B2, “Heterocyclic compounds for inhibiting TYK2 activities” (Beijing InnoCare Pharma Tech Co., Ltd., priority 2020, dated 2023)
pIC50: −log10 of the molar value. Each block holds one compound with its values, some of them ahead of it.

Key:
[1] = system: IL-12-induced IFN-γ secretion in NK92 cells; experiment: Inhibition of IL-12-induced IFN-γ secretion in NK92 cells (ELISA); type: cell-based; settings: Homo sapiens, IL-12, 24 hours, read-out: IC50 (NK92_IL12/IFN-γ)
Procedure: The effect of the compounds of the present invention on IFN-γ secretion induced by TYK2 in NK92 cells is evaluated by an enzyme-linked immunosorbent assay (ELISA) (Table 2).
IL-12 receptor is mainly expressed in activated T-cells, NK cells (NK92 is a NK cell line), DC cells, and B-cells. When binding to IL-12, it activates JAK2/TYK2 signal transduction pathway within NK cells and T lymphocytes, thereby inducing secretion of IFN-γ.
The experimental method is generally described below:
The 96-well plate is then incubated overnight in a 37° C./5% CO2 incubator.
The plate is centrifuged at 800 rpm for 10 minutes at room temperature and 50 μL of the supernatant from each well is transferred to another 96-well plate (Sigma, Cat No. CLS3695) coated with anti-IFN-γ antibody. The amount of IFN-γ secretion is detected following the instruction from the Human IFN-gamma DuoSet ELISA kit (R & D Systems, Cat No. DY285B). […] The percentage of inhibition on IL-12 induced IFN-γ secretion in NK-92 cells by the test compound is calculated using the following formula: […]
The IC50 value of the test compound is calculated from 8 concentration points using the XLfit software (ID Business Solutions Ltd., UK) by the following formula: […]
Where Y is the percentage of inhibition, X is the logarithm of the concentration of the test compound, Bottom is the bottom plateau value of the S-shaped curve, Top is the top plateau value of the S-shaped curve, and slope factor is the slope coefficient of the curve.

[2] = system: anti-CD40 antibody-induced colitis; experiment: Anti-CD40 antibody-induced colitis animal model; type: in vivo, CB17-Scid mice; settings: for body weight loss after treatment in anti-CD40 colitis (IBD) model: mice; for Spleen weight, Mean: Day 8; for protection from colitis (body weight loss and spleen enlargement) versus vehicle group: Compound 3 at 1.5, 5 and 15 mg/kg, reference compound at 5 mg/kg, oral twice daily
Procedure: The female CB17-Scid mice (8-10 weeks old, 18-20 g) from Beijing Vital River laboratory were randomly divided into 5 groups (n=8 per group). On Day 0, colitis was induced in mice each with a single intraperitoneal injection of 100 μg of FGK4.5 anti-CD40 mAb (BioXCell, Cat. No. EB0016-2) in PBS. […] On a daily basis, mice were weighed and monitored for signs of colitis including body weight loss and the accompanying loose stools and diarrhea. On Day 8, all animals were euthanized. Spleen tissues were collected and weighed.

[3] = In vivo rat PK determination; set-up: species or system Sprague Dawley rats; settings: IV (1 mpk); for CL / Vss: n = 3; for T1/2: n = 3 (header span assumed)
[4] = In vivo rat PK determination; set-up: species or system Sprague Dawley rats; settings: for F: PO (5 mpk) vs IV (1 mpk); for AUClast / Cmax: PO (5 mpk), n = 3
Procedure: The pharmacokinetics of Compound 3 of the present invention and the reference compound BMS-986165 were evaluated. Compound 3 has an OCD3 on a benzene ring, whereas the reference compound has an CD3 on an amide moiety. Methyl group is typically labile in vivo, subject to hydrolysis by amidase in the case of methylamide and to oxidative demethylation by CYPs in the case of methoxy and methyltriazole. Substituting methyl with tri-deuterated methyl improves the bioavailability and in vivo exposure of the compound and provides a better efficacy of the compound under the same dose.
Compound 3 and the reference compound in a 0.5 mg/mL solution containing 5% N,N-dimethylacetamide+20% solutol+75% saline were orally administered to three male Sprague Dawley rats at a dose of 5 mg/kg. Blood samples were collected at 0.25, 0.5, 1, 2, 4, 8 and 24 hours after administration. The concentrations of the compound in the plasma were quantified by LC-MS/MS using an API-4500 mass spectrometer. The limit of quantification (LOQ) of analysis was 1 ng/mL. The pharmacokinetic (PK) parameters were calculated by the non-compartmental method using WinNonlin and are present in Table 3.

- pIC50 [1]: 7.13
Structure (SMILES): [2H]C([2H])([2H])NC(=O)c1nnc(NC(=O)[C@H]2CC2(F)F)cc1Nc1cccc(-c2ncn(C)n2)c1OC [Compound 7, (R)-6-(2,2-difluorocyclopropane-1-carboxamido)-4-((2-methoxy-3-(1-methyl-1H-1,2,4-triazol-3-yl)phenyl)amino)-N-(methyl-d3)pyridazine-3-carboxamide]

Structure (SMILES): [2H]C([2H])([2H])n1cnc(-c2cccc(Nc3cc(NC(=O)C4CC4)nnc3C(=O)NC)c2OC)n1 [Compound 2, 6-(cyclopropanecarboxamido)-4-((2-methoxy-3-(1-(methyl-d3)-1H-1,2,4-triazol-3-yl)phenyl)amino)-N-methylpyridazine-3-carboxamide]
- pIC50 [1]: 7.89
- body weight loss after treatment in anti-CD40 colitis (IBD) model [2]: no significant body weight loss

Structure (SMILES): [2H]C([2H])([2H])NC(=O)c1nnc(NC(=O)C2CC2)cc1Nc1cccc(-c2ncn(C([2H])([2H])[2H])n2)c1OC [Compound 1, 6-(cyclopropanecarboxamido)-4-((2-methoxy-3-(1-(methyl-d3)-1H-1,2,4-triazol-3-yl)phenyl)amino)-N-(methyl-d3)pyridazine-3-carboxamide]
- pIC50 [1]: 7.80

- pIC50 [1]: 7.33
Structure (SMILES): CNC(=O)c1nnc(NC(=O)[C@@H]2CC2(F)F)cc1Nc1cccc(-c2ncn(C)n2)c1OC [Compound 6, (S)-6-(2,2-difluorocyclopropane-1-carboxamido)-4-((2-methoxy-3-(1-methyl-1H-1,2,4-triazol-3-yl)phenyl)amino)-N-methylpyridazine-3-carboxamide]

Structure (SMILES): [2H]C([2H])([2H])Oc1c(Nc2cc(NC(=O)C3CC3)nnc2C(=O)NC)cccc1-c1ncn(C)n1 [Compound 3, 6-(cyclopropanecarboxamido)-4-((2-(methoxy-d3)-3-(1-methyl-1H-1,2,4-triazol-3-yl)phenyl)amino)-N-methylpyridazine-3-carboxamide]
- pIC50 [1]: 7.85
- CL [3]: 12 mL/min/kg
- Vss [3]: 1.1 L/kg
- T1/2 [3]: 4.3 h
- Spleen weight, Mean ([2]; 1.5 mg/kg oral twice daily): 0.060 g
- Spleen weight, Mean ([2]; 5 mg/kg oral twice daily): 0.037 g
- Spleen weight, Mean ([2]; 15 mg/kg oral twice daily): 0.025 g
- protection from colitis (body weight loss and spleen enlargement) versus vehicle group [2]: significantly protected mice from colitis
- body weight loss after treatment in anti-CD40 colitis (IBD) model [2]: no significant body weight loss
- F [4]: 92%
- AUClast [4]: 6560 ng·h/mL
- Cmax [4]: 971 ng/mL
- in vivo exposure compared with reference compound ([4]; oral 5 mg/kg): better in vivo exposures than the reference compound

- pIC50 [1]: 7.28
Structure (SMILES): [2H]C([2H])([2H])NC(=O)c1nnc(NC(=O)[C@@H]2CC2(F)F)cc1Nc1cccc(-c2ncn(C)n2)c1OC [Compound 5, (S)-6-(2,2-difluorocyclopropane-1-carboxamido)-4-((2-methoxy-3-(1-methyl-1H-1,2,4-triazol-3-yl)phenyl)amino)-N-(methyl-d3)pyridazine-3-carboxamide]
- body weight loss after treatment in anti-CD40 colitis (IBD) model [2]: no significant body weight loss

Structure (SMILES): [2H]C([2H])([2H])NC(=O)c1nnc(NC(=O)C2CC2)cc1Nc1cccc(-c2ncn(C)n2)c1OC([2H])([2H])[2H] [Compound 4, 6-(cyclopropanecarboxamido)-4-((2-(methoxy-d3)-3-(1-methyl-1H-1,2,4-triazol-3-yl)phenyl)amino)-N-(methyl-d3)pyridazine-3-carboxamide]
- pIC50 [1]: 7.96

Structure (SMILES): [2H]C([2H])([2H])NC(=O)c1nnc(NC(=O)C2CC2)cc1Nc1cccc(-c2ncn(C)n2)c1OC [BMS-986165, reference compound]
- pIC50 [1]: 7.77
- CL [3]: 14 mL/min/kg
- Vss [3]: 1.5 L/kg
- T1/2 [3]: 3.3 h
- Spleen weight, Mean ([2]; 5 mg/kg oral twice daily): 0.036 g
- protection from colitis (body weight loss and spleen enlargement) versus vehicle group [2]: significantly protected mice from colitis
- F [4]: 46%
- AUClast [4]: 2828 ng·h/mL
- Cmax [4]: 632 ng/mL
